Values quoted from earlier work, collected in US4657924A, “Nafazatrom as a lipoxygenase inhibitor” (priority 1983, dated 1987).

Columns and labels:
cyclooxygenase = conditions: stated disadvantage; cited from earlier work
[1] = tested on: synthesis of prostaglandins from arachidonic acid; conditions: comparison with nafazatrom; cited from earlier work

Row | Structure (SMILES) | activity of known lipoxygenase inhibitors as cyclooxygenase inhibitors (cyclooxygenase) | action on the synthesis of prostaglandins from arachidonic acid [1]
1 | CCCCCC#CCC#CCC#CCC#CCCCC(=O)O [5,8,11,14-eicosatetrainoic acid] | either at the same time active as cyclooxygenase inhibitors or active only in very high concentrations | –
2 | COc1ccc2c(c1)c(CC(=O)O)c(C)n2C(=O)c1ccc(Cl)cc1 [indomethacin] | – | overall inhibiting action
3 | CC(Cc1ccc(O)c(O)c1)C(C)Cc1ccc(O)c(O)c1 (stereo not shown) [nordihydroguaiaretic acid] | either at the same time active as cyclooxygenase inhibitors or active only in very high concentrations | –
4 | O=C1CCN(c2ccccc2)N1 [phenidone] | either at the same time active as cyclooxygenase inhibitors or active only in very high concentrations | –
